Data published in the PolyMetriX glass transition set.
± gives the standard deviation of the reports.

Row | glass transition temperature [°C] | Structure (SMILES)
1 | 345.00 | *c1ccc(-c2nc3ccc(Oc4ccc5nc(*)c(-c6ccccc6)c(-c6ccccc6)c5c4)cc3c(-c3ccccc3)c2-c2ccccc2)cc1 (repeat unit)
2 | 129.00 | *c1cc(C(=O)OCC(F)(F)C(F)(F)C(F)(F)F)c(*)s1 (repeat unit)
3 | -46.00 | *O[Si](*)(C)CCCOC(=O)c1cc(OC(=O)c2ccc(OCCOCCOCCOCCOCCOCCOC)cc2)ccc1OC(=O)c1ccc(OCCOCCOCCOCCOCCOCCOC)cc1 (repeat unit)
4 | 320.00 | *C(=O)Nc1cccc(S(=O)(=O)c2cccc(NC(=O)c3ccc4c(c3)C(=O)N(c3ccc(-c5sc(-c6ccc(N7C(=O)c8ccc(*)cc8C7=O)cc6)c(-c6ccccc6)c5-c5ccccc5)cc3)C4=O)c2)c1 (repeat unit)
5 | 107.00 | *Oc1ccc(C(C)(C)c2ccc(Oc3cccc(*)n3)cc2)cc1 (repeat unit)
6 | 250.00 | *c1ccc(NC2CC(=O)N(c3ccc(Cc4ccc(N5C(=O)CC(Nc6ccc(-c7nc(-c8ccc(/C=C/c9ccc([N+](=O)[O-])cc9)cc8)[nH]c7*)cc6)C5=O)cc4)cc3)C2=O)cc1 (repeat unit)
7 | 327.00 | *c1ccc(OC(=O)c2ccc(C(=O)Oc3ccc(C4(*)NC(=O)c5ccccc54)cc3)cc2)cc1 (repeat unit)
8 | 266.00 | *Oc1ccc(NC(=O)c2ccc3cc(C(=O)Nc4ccc(Oc5ccc(C6(c7ccc(*)cc7)C7CC8CC(C7)CC6C8)cc5)cc4)ccc3c2)cc1 (repeat unit)
9 | 55.00 | *O[Si](*)(C)CCCCCCCCCCCOc1ccc(/C=C/c2ccc(OC)cc2)cc1 (repeat unit)
10 | 165.00 | *CCCC1(CCCNC(=O)c2ccccc2-c2ccccc2C(=O)N*)c2ccccc2-c2ccccc21 (repeat unit)
11 | 330.00 | *c1ccc2oc(-c3ccc(C(c4ccccc4)(c4ccc(-c5nc6cc(C(*)(c7ccccc7)C(F)(F)F)ccc6o5)cc4)C(F)(F)F)cc3)nc2c1 (repeat unit)
12 | 10.00 | *CCCCCCCCCCN/C(=N/*)c1ccccc1 (repeat unit)
13 | 263.00 | *c1cccc(C(=O)Nc2ccc(Oc3ccc(S(=O)(=O)c4ccc(Oc5ccc(NC(=O)c6cccc(N7C(=O)c8ccc(-c9cccc%10c9C(=O)N(*)C%10=O)cc8C7=O)c6)cc5)cc4)cc3)cc2)c1 (repeat unit)
14 | 208.00 | */C(=C/c1cc(OC)c(/C=C(\c2ccc(F)cc2)c2ccc3cc(*)ccc3c2)cc1OC)c1ccc(F)cc1 (repeat unit)
15 | 202.00 | *c1ccc(Oc2ccc(Oc3ccc(N4C(=O)c5ccc(Oc6ccccc6Oc6ccc7c(c6)C(=O)N(*)C7=O)cc5C4=O)cc3)cc2)cc1 (repeat unit)
16 | 60.00 | *CCCCCCCCCCCC(=O)Oc1ccc(-c2ccc(OC(=O)c3ccc4c(c3)C(=O)N(*)C4=O)cc2)cc1 (repeat unit)
17 | 296.00 | *c1ccc(NC(=O)c2cccc(C(=O)Nc3ccc(-n4c(=O)c5cc6c(=O)n(*)c(=O)c6cc5c4=O)cc3)c2)cc1 (repeat unit)
18 | 210.50 | *Oc1ccc(S(=O)(=O)c2ccc(Oc3ccc(C(C)(C)c4ccc(*)cc4)cc3)cc2N)c(N)c1 (repeat unit)
19 | 198.00 | *c1ccc(C(=O)c2cccc(C(=O)c3ccc(S(*)(=O)=O)cc3)c2)cc1 (repeat unit)
20 | 182.00 | *C(=O)c1ccc2c(c1)C(=O)N(c1cc(OCCCCCCCCCCCC)cc(N3C(=O)c4ccc(*)cc4C3=O)c1)C2=O (repeat unit)
21 | 43.00 | *CC(*)(C)C(=O)OCCCCCCOc1ccc(C(=O)Oc2ccc(C#N)cc2)cc1 (repeat unit)
22 | 96.50 | */C=C/C1CC(*)C(C(=O)Oc2ccccc2)C1C(=O)Oc1ccccc1 (repeat unit)
23 | 391.50 | *c1ccc(-c2nc3cc(-c4ccc5nc(*)c(-c6ccccc6)nc5c4)ccc3nc2-c2ccccc2)cc1 (repeat unit)
24 | 88.00 | *CC(*)(C)C(=O)OCCCCOc1ccc2cc(C(=O)Oc3ccccc3)ccc2c1 (repeat unit)
25 | -38.00 | *CC(CCCCCCCCCC)C(CCCCCCCCCC)COC(=O)c1ccc(C(=O)O*)cc1 (repeat unit)
26 | 253.00 | *Nc1ccc(Br)cc1-c1ccc(NC(=O)c2cccc(C(*)=O)c2)cc1 (repeat unit)
27 | 128.00 | *COC(=O)OC1C(*)OC2OC(C)(C)OC21 (repeat unit)

Row | glass transition temperature [°C] | Structure (SMILES)
28 | 126.00 | *c1ccc(-c2cc3c(ccc4ccccc43)cc2-c2ccc(N(*)c3ccc(C)cc3)cc2)cc1 (repeat unit)
29 | 125.00 | *CCOCCOCCOCCOCCOCCOc1ccc(C(=O)Nc2cc(NC(=O)c3ccc(O*)cc3)cc(-c3nc4ccccc4[nH]3)c2)cc1 (repeat unit)
30 | 59.00 | *CC(*)(C)C(=O)OCCCCCCCCCCCOc1ccc(/N=N/c2ccc(OC(=O)c3ccc4c(c3)OCCOCCOCCOCCO4)cc2)cc1 (repeat unit)
31 | 303.00 | *C(=O)Nc1ccc(Oc2ccc(Oc3ccc(NC(=O)c4ccc5c(c4)C(=O)N(c4ccc(-c6sc(-c7ccc(N8C(=O)c9ccc(*)cc9C8=O)cc7)c(-c7ccccc7)c6-c6ccccc6)cc4)C5=O)cc3)cc2)cc1 (repeat unit)
32 | 26.00 | *CC(*)(C)C(=O)OCc1ccc2c(c1)c1ccccc1n2CCCCCCCCCCCCCC (repeat unit)
33 | 167.00 | *Oc1ccc(S(=O)(=O)c2ccc(Oc3ccc(C(=C)c4ccc(*)cc4)cc3)cc2)cc1 (repeat unit)
34 | 221.00 | *c1ccc(Oc2cccc(N3C(=O)c4ccc(Oc5ccc6ccc(Oc7ccc8c(c7)C(=O)N(*)C8=O)cc6c5)cc4C3=O)c2)cc1 (repeat unit)
35 | 250.00 | *c1cc(*)cc(-c2nc3ccccc3o2)c1 (repeat unit)
36 | -23.00 | *CC(*)(CC(=O)OCCCCCCC)C(=O)OCCCCCCC (repeat unit)
37 | 109.00 | *CC(*)(C)C(=O)Oc1ccc(C(=O)OC)cc1 (repeat unit)
38 | 288.00 | *C1C(=O)N(c2c(CC)cccc2CC)C(=O)C1* (repeat unit)
39 | 385.00 ± 20 | *c1ccc(Oc2ccc(-n3c(=O)c4cc5c(=O)n(*)c(=O)c5cc4c3=O)cc2)cc1 (repeat unit)
40 | 46.00 | *Nc1ccc(Cc2ccc(NC(=O)NCCCCCCCCCCNC(*)=O)cc2)cc1 (repeat unit)
41 | 259.00 | *C(=O)c1ccc2c(c1)C(=O)N(c1cccc(C(=O)c3ccccc3N3C(=O)c4ccc(*)cc4C3=O)c1)C2=O (repeat unit)
42 | 109.00 | *C/C=C/COC(=O)C(Cc1ccccc1)NC(=O)/C=C/C(=O)NC(Cc1ccccc1)C(=O)O* (repeat unit)
43 | 263.00 | *Oc1ccc(S(=O)(=O)c2ccc(-c3ccc(S(=O)(=O)c4ccc(Oc5ccc(-c6ccc(-c7ccc(*)cc7)cc6)cc5)cc4)cc3)cc2)cc1 (repeat unit)
44 | 180.00 | *CC(CC(*)(C#N)C#N)c1ccc(CCl)cc1 (repeat unit)
45 | 136.00 | *Oc1ccc(C2(c3ccc(OC(=O)CCCCCCCCCC(*)=O)cc3)c3ccccc3-c3ccccc32)cc1 (repeat unit)
46 | -10.00 | *C(F)(F)C(*)(F)OC(F)(F)C(F)(F)C(F)(F)C(F)(F)F (repeat unit)
47 | 225.00 | *Oc1ccc(Oc2ccc(C(=O)c3ccc(*)cc3)cc2)cc1S(=O)(=O)O (repeat unit)
48 | 94.00 | *c1ccc2oc(-c3cc(OCCCCCCCCCC)c(-c4nc5cc(C(*)(C(F)(F)F)C(F)(F)F)ccc5o4)cc3OCCCCCCCCCC)nc2c1 (repeat unit)
49 | 165.00 | *c1cccc(OCCCCCOc2cccc(N3C(=O)c4ccc(-c5ccc6c(c5)C(=O)N(*)C6=O)cc4C3=O)c2)c1 (repeat unit)
50 | 36.00 | *CCCCCCCCNC(=O)CCCCCCCCCCCCCCCCC(=O)N* (repeat unit)
51 | 351.00 | *c1ccc(Cc2ccc(-n3c(=O)c4cc5c(=O)n(*)c(=O)c5cc4c3=O)cc2)cc1 (repeat unit)
52 | 315.00 | *C(=O)Nc1ccc(Oc2cccc(NC(=O)c3ccc4c(c3)C(=O)N(c3ccc(-c5sc(-c6ccc(N7C(=O)c8ccc(*)cc8C7=O)cc6)c(-c6ccccc6)c5-c5ccccc5)cc3)C4=O)c2)cc1 (repeat unit)
53 | -55.00 | *O[Si](C)(CCC(F)(F)C(F)(F)C(F)(F)C(F)(F)C(F)(F)C(F)(F)F)O[Si](C)(C)c1ccc([Si](*)(C)C)cc1 (repeat unit)
54 | 329.00 | *C(=O)Nc1ccc(Cc2ccc(NC(=O)c3ccc4c(c3)C(=O)N(c3c(C)cc(-c5cc(C)c(N6C(=O)c7ccc(*)cc7C6=O)c(C)c5)cc3C)C4=O)c(C)c2)cc1C (repeat unit)

Row | Structure (SMILES) | glass transition temperature [°C]
55 | *C#Cc1cccc(C#C[Si](*)(C)C)c1 (repeat unit) | 50.00
56 | *OC(C)COC(=O)/C=C/C(*)=O (repeat unit) | -14.00
57 | *O[Si](C)(C)[Si](*)(C)C (repeat unit) | -119.00
58 | *OP(=O)(Oc1cccc2c(*)cccc12)OC1CCCCC1 (repeat unit) | 134.00
59 | *Oc1ccc(S(=O)(=O)c2ccc(Oc3ccc(P(C)(=O)c4ccc(*)cc4)cc3)cc2)cc1 (repeat unit) | 233.00
60 | *Oc1ccc(C(C)(C)c2ccc(OC(=O)Nc3cccc(P(=O)(c4ccccc4)c4cccc(NC(*)=O)c4)c3)cc2)cc1 (repeat unit) | 62.00
61 | *=NP(=NP(=NC(=*)Oc1ccc(OC)cc1)(Oc1ccc(OC)cc1)Oc1ccc(OC)cc1)(Oc1ccc(OC)cc1)Oc1ccc(OC)cc1 (repeat unit) | 37.00
62 | *C(=O)OCCN(CCOC(=O)c1ccc2c(c1)C(=O)N(c1c(C)cc(Cc3cc(C)c(N4C(=O)c5ccc(*)cc5C4=O)c(C)c3)cc1C)C2=O)c1ccc(/N=N/c2ccc([N+](=O)[O-])cc2C#N)cc1 (repeat unit) | 216.00
63 | *CC(*)c1cc(C)cc(C)c1 (repeat unit) | 112.00
64 | *c1cc(CCCCCC)c(*)s1 (repeat unit) | 15.2 ± 7.3
